Experiments:
[1] = target: T1, 5 HT2C receptor (Homo sapiens, UniProt P28335); assay: affinity to the 5 HT2C receptor; format: binding
T1 sequence (P28335 33-458): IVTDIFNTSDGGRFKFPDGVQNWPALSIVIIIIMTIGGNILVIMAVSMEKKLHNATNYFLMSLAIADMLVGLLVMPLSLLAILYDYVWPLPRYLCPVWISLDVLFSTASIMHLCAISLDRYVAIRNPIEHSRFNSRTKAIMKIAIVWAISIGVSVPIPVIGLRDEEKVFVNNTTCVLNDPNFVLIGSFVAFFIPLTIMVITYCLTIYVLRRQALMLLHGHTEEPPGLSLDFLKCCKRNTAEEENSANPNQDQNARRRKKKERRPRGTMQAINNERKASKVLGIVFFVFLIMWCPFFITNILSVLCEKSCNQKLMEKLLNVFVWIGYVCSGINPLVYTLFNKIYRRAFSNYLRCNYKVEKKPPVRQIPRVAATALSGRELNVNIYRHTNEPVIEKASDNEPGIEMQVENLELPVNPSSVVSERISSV

[2] = target: 5-HT2A receptors (Rattus norvegicus, UniProt P14842); assay: in-vitro affinity to 5-HT2A receptors, displacement of [3H]ketanserine (Example A1); format: binding; conditions: read-out: HT2A IC50
Excerpt: The 5-HT2A receptors are exposed both to [^3H]ketanserine (a substance which is known for its affinity to the receptor) and also to the test compound. The decrease in the affinity of [^3H]ketanserine to the receptor is an indication of the affinity of the test substance to the 5-HT2A receptor.

Sequence of 5-HT2A receptors (P14842 whole entry): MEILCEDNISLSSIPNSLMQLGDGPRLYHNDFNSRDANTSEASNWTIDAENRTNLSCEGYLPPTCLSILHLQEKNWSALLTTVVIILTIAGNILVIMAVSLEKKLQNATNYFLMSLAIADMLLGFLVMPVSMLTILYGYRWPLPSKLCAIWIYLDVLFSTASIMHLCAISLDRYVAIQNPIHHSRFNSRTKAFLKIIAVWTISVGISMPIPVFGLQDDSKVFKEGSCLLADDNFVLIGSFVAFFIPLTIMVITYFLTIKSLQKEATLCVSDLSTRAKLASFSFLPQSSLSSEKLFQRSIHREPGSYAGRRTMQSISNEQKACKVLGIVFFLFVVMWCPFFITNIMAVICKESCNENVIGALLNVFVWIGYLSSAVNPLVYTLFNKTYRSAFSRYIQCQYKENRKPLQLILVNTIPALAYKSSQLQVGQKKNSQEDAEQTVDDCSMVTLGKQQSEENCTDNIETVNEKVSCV

| SMILES | IC50 [1] | IC50 [2] |
| --- | --- | --- |
| Fc1ccccc1-c1c(CN2CCNCC2)cnn1-c1ccc(C(F)(F)F)cc1 [Example 944, 1-[5-(2-Fluorophenyl)-1-(4-trifluoro-methyl-phenyl)-1H-pyrazol-4-ylmethyl]piperazine] | 790 nM | 43 nM |
| OCCNCc1cnn(-c2ccc(-c3ccccc3)cc2)c1-c1ccccc1F [Example 892, 2-{[1-Biphenyl-4-yl-5-(2-fluorophenyl)-1H-pyrazol-4-ylmethyl]amino}ethanol] | 420 nM | 5.2 nM |
| CN1CCCN(Cc2cnn(-c3ccc(-c4ccccc4)cc3)c2-c2ccccc2F)CC1 [Example 893, 1-[1-Biphenyl-4-yl-5-(2-fluorophenyl)-1H-pyrazol-4-ylmethyl]-4-methyl-[1,4]diazepam] | 230 nM | 6.4 nM |
| CN1CCN(NCc2cnn(-c3ccc(-c4ccccc4)cc3)c2-c2ccccc2F)CC1 [Example 903, [1-Biphenyl-4-yl-5-(2-fluorophenyl)-1H-pyrazol-4-ylmethyl]-(4-methylpiperazin-1-yl)amine] | 470 nM | 14 nM |
| CN(C)Cc1cnn(-c2ccc(C(F)(F)F)cn2)c1-c1ccccc1F [Example 937, [5-(2-Fluorophenyl)-1-(5-trifluoro-methylpyridin-2-yl)-1H-pyrazol-4-ylmethyl]dimethylamine] | 1000 nM | 35 nM |
| CC(C)c1ccc(-n2ncc(CN3CCN(C)CC3)c2-c2ccccc2F)cc1 [Example 983, 1-[5-(2-Fluorophenyl)-1-(4-isopropylphenyl)-1H-pyrazol-4-ylmethyl]-4-methylpiperazine] | 520 nM | 120 nM |
| CN1CCN(Cc2cnn(-c3ccc(-c4ccc(F)cc4)cc3)c2-c2ccc(Cl)cc2)CC1 [Example 1057, 1-[5-(4-Chlorophenyl)-1-(4′-fluoro-biphenyl-4-yl)-1H-pyrazol-4-ylmethyl]-4-methylpiperazine] | 1000 nM | 460 nM |
| CC(C)N1CCN(Cc2cnn(-c3ccc(-c4ccc(F)cc4)cc3)c2-c2cccc(Cl)c2)CC1 [Example 943, 1-[5-(3-Chlorophenyl)-1-(4′-fluorobiphenyl-4-yl)-1H-pyrazol-4-ylmethyl]-4-isopropylpiperazine] | 1000 nM | 41 nM |
| CCN(CC)Cc1cnn(-c2ccc(-c3ccccc3)cc2)c1-c1ccccc1F [Example 897, [1-Biphenyl-4-yl-5-(2-fluorophenyl)-1H-pyrazol-4-ylmethyl]diethylamine] | 1000 nM | 11 nM |
| O=C(c1ccc(F)cc1)C1CCN(Cc2cnn(-c3ccc(-c4ccc(F)cc4)cc3)c2-c2ccccc2Cl)CC1 [Example 1019, 1-{1-{5-(2-Chlorophenyl)-1-(4′-fluoro-biphenyl-4-yl)-1H-pyrazol-4-ylmethyl]piperidin-4-yl}-1-(4-fluorophenyl)methanone] | 40 nM | 230 nM |
| CCN(CC)Cc1cnn(-c2ccc(-c3ccc(F)cc3)cc2)c1-c1ccc(Cl)cc1 [Example 1016, [5-(4-Chlorophenyl)-1-(4′-fluoro-biphenyl-4-yl)-1H-pyrazol-4-ylmethyl]diethylamine] | 1000 nM | 220 nM |
| CN1CCN(Cc2cnn(-c3ccc(-c4ccc(F)cc4)cc3)c2-c2ccccc2F)CC1 [Example 902, 1-[1-(4′-Fluorobiphenyl-4-yl)-5-(2-fluoro-phenyl)-1H-pyrazol-4-ylmethyl]-4-methyl-piperazine] | 215 nM | 13.1 nM |
| Fc1ccccc1-c1c(CNCc2nc3ccccc3[nH]2)cnn1-c1ccc(-c2ccccc2)cc1 [Example 969, (1H-Benzoimidazol-2-ylmethyl)-[1-biphenyl-4-yl-5-(2-fluorophenyl)-1H-pyrazol-4-ylmethyl]-amine] | 1000 nM | 76 nM |
| CCN1CCCC1CNCc1cnn(-c2ccc(-c3ccccc3)cc2)c1-c1ccccc1F (stereo not shown) [Example 947, [1-Biphenyl-4-yl-5-(2-fluorophenyl)-1H-pyrazol-4-ylmethyl]-(1-ethyl-pyrrolidin-2-yl-methyl)amine] | 1000 nM | 46.9 nM |
| OC1CCN(Cc2cnn(-c3ccc(-c4ccc(F)cc4)cc3)c2-c2ccc(Cl)cc2)C1 (stereo not shown) [Example 1003, 1-[5-(4-Chlorophenyl)-1-(4′-fluoro-biphenyl-4-yl)-1H-pyrazol-4-ylmethyl]pyrrolidin-3-ol] | 1000 nM | 170 nM |
| O=C1CCCN1CCCNCc1cnn(-c2ccc(-c3ccccc3)cc2)c1-c1ccccc1F [Example 961, 1-(3-{[1-Biphenyl-4-yl-5-(2-fluoro-phenyl)-1H-pyrazol-4-ylmethyl]amino}propyl)pyrrolidin-2-one] | 1000 nM | 64 nM |

| SMILES | IC50 [1] | IC50 [2] |
| --- | --- | --- |
| CN1CCN(Cc2cnn(-c3ccc(-c4ccc(F)c(F)c4)cc3)c2-c2ccccc2F)CC1 [Example 960, 1-[1-(3′,4′-Difluorobiphenyl-4-yl)-5-(2-fluoro-phenyl)-1H-pyrazol-4-ylmethyl]-4-methyl-piperazine] | 340 nM | 60 nM |
| CN1CCN(Cc2cnn(-c3ccc(-c4ccccc4)cc3)c2-c2ccccn2)CC1 [Example 949, 1-(1-Biphenyl-4-yl-5-pyridin-2-yl-1H-pyrazol-4-ylmethyl)-4-methylpiperazine] | 1000 nM | 50 nM |
| CN1CCN(Cc2cnn(-c3ccc(-c4ccc(F)cc4)cc3)c2-c2ccccc2Cl)CC1 [Example 965, 1-[5-(2-Chlorophenyl)-1-(4′-fluoro-biphenyl-4-yl)-1H-pyrazol-4-ylmethyl]-4-methylpiperazine] | 600 nM | 72 nM |
| CN(C)Cc1cnn(-c2ccc(-c3ccccc3)cc2)c1-c1ccccc1F [Example 914, [1-Biphenyl-4-yl-5-(2-fluorophenyl)-1H-pyrazol-4-ylmethyl]dimethylamine] | 450 nM | 21 nM |
| Fc1ccccc1-c1c(CN2CCNCC2)cnn1-c1ccc(-c2ccccc2)cc1 [Example 924, 1-[1-Biphenyl-4-yl-5-(2-fluorophenyl)-1H-pyrazol-4-ylmethyl]piperazine] | 660 nM | 26 nM |
| CN1CCN(Cc2cnn(-c3ccc(OC(F)(F)F)cc3)c2-c2ccccc2F)CC1 [Example 1029, 1-[5-(2-Fluorophenyl)-1-(4-trifluoromethoxy-phenyl)-1H-pyrazol-4-ylmethyl]-4-methyl-piperazine] | 490 nM | 270 nM |
| CC(C)c1ccc(-c2ccc(-n3ncc(CN4CCN(C)CC4)c3-c3ccccc3F)cc2)cc1 [Example 958, 1-[5-(2-Fluorophenyl)-1-(4′-isopropylbiphenyl-4-yl)-1H-pyrazol-4-ylmethyl]-4-methyl-piperazine] | 830 nM | 58.1 nM |
| c1ccc(-c2ccc(-n3ncc(CNCc4ccncc4)c3-c3ccccc3)cc2)cc1 [Example 932, (1-Biphenyl-4-yl-5-phenyl-1H-pyrazol-4-yl-methyl)pyridin-4-ylmethylamine] | 1000 nM | 31 nM |
| CN(CCO)Cc1cnn(-c2ccc(-c3ccccc3)cc2)c1-c1ccccc1F [Example 906, 2-{[1-Biphenyl-4-yl-5-(2-fluorophenyl)-1H-pyrazol-4-ylmethyl]methylamino}ethanol] | 1000 nM | 16 nM |
| CN1CCC(N(C)Cc2cnn(-c3ccc(-c4ccccc4)cc3)c2-c2ccccc2F)C1 (stereo not shown) [Example 907, [1-Biphenyl-4-yl-5-(2-fluorophenyl)-1H-pyrazol-4-ylmethyl]methyl-(1-methylpyrrolidin-3-yl)amine] | 84 nM | 16 nM |
| COCCNCc1cnn(-c2ccc(-c3ccccc3)cc2)c1-c1ccccc1F [Example 905, [1-Biphenyl-4-yl-5-(2-fluorophenyl)-1H-pyrazol-4-ylmethyl]-(2-methoxyethyl)amine] | 1000 nM | 16 nM |
| CN1CCN(Cc2cnn(-c3ccc(-c4ccc(C#N)cc4)cc3)c2-c2ccccc2F)CC1 [Example 952, 4′-[5-(2-Fluorophenyl)-4-(4-methyl-piperazin-1-ylmethyl)pyrazol-1-yl]biphenyl-4-carbonitrile] | 790 nM | 53 nM |
| CN(C)CCN(C)Cc1cnn(-c2ccc(-c3ccc(F)cc3)cc2)c1-c1ccc(Cl)cc1 [Example 1024, N-[5-(4-Chlorophenyl)-1-(4′-fluoro-biphenyl-4-yl)-1H-pyrazol-4-ylmethyl]-N,N′,N′-trimethyl-ethane-1,2-diamine] | 1000 nM | 240 nM |
| c1ccc(-c2ccc(-n3ncc(CNCc4ccccn4)c3-c3ccccc3)cc2)cc1 [Example 918, (1-Biphenyl-4-yl-5-phenyl-1H-pyrazol-4-yl-methyl)pyridin-2-ylmethylamine] | 1000 nM | 23 nM |
| CN1CCN(Cc2cnn(-c3ccc(-c4ccc5c(c4)OCCO5)cc3)c2-c2ccccc2F)CC1 [Example 901, 1-[1-[4-(2,3-Dihydrobenzo[1,4]dioxin-6-yl)-phenyl]-5-(2-fluorophenyl)-1H-pyrazol-4-yl-methyl]-4-methyl-piperazine] | 870 nM | 13 nM |
| OC1CCN(CCc2cnn(-c3ccc(-c4ccc(F)cc4)cc3)c2-c2ccccc2F)C1 (stereo not shown) [Example 913, 1-{2-[1-(4′-Fluorobiphenyl-4-yl)-5-(2-fluoro-phenyl)-1H-pyrazol-4-yl]ethyl}pyrrolidin-3-ol] | 620 nM | 20 nM |
